# Source: PMC12563652 (International Journal of Molecular Sciences, 2025)
# Where two headings read alike, the source gives them in different places.
# Experiments:
# [1] = biological target: α2-adrenoceptor; assay: Competitive radioligand binding, [3H]clonidine, rat cerebral cortex; conditions: n.a. = no activity at 10–5 M
# Procedure: The competitive radioligand-binding assay assessed affinity for α1- and α2-adrenoceptors. Experiments were carried out in the rat cerebral cortex. […] The membrane preparation and assay technique followed the previously reported protocol [10]. Radioactivity was measured using the MicroBeta2 scintillation counter (PerkinElmer, Kraków, Poland). The data was adjusted to match a single-site curve-fitting formula using Prism 8 (GraphPad Software, La Jolla, CA, USA), and the Ki values were estimated by means of the Cheng–Prusoff formula.
# [2] = tested on: HepG2 cells; assay: Glucose consumption (Amplex Red assay) in HepG2 cells; type: cell-based, human; conditions: for increase in glucose consumption (uptake): relative to vehicle-treated cells
# Procedure: The HepG2 human hepatocellular carcinoma cell line (ATCC® HB-8065™) was cultured in DMEM supplemented with 10% FBS, 100 µg/mL streptomycin, and 100 IU/mL penicillin at 37 °C in 5% CO2. Cells were seeded in 96-well plates at a density of 10,000 cells/well and used for experiments 24 h after plating.
# Stock solutions of test compounds were prepared at a concentration of 10 mM in dimethyl sulfoxide (DMSO). At least 1 mg of each substance was carefully measured and mixed with the right amount of DMSO. A series of dilutions were made in DMSO and then further diluted in phosphate-buffered saline before being introduced into the cell culture medium. Precipitation or opalescence was assessed prior to application.
# The glucose uptake was measured with the Amplex® Red Glucose/Glucose Oxidase Assay Kit from Thermo Fisher Scientific, following the guidelines provided by the maker. Cell culture supernatants were collected and incubated with a reaction mix containing 100 μM Amplex® Red reagent, 0.2 U/mL horseradish peroxidase (HRP), and 1 U/mL glucose oxidase at room temperature for 30 min in the dark. Fluorescence was measured at 530 nm excitation and 590 nm emission using the POLARstar Omega plate reader (BMG Labtech).
# [3] = tested on: C57BL/6 mice; assay: Inhibition of gastric emptying (mouse model, phenol red); type: in vivo
# Procedure: Fifty male C57BL/6 mice (22–27 g) were housed in standard cages while maintaining a 12:12-h light/dark cycle, with food and water available ad libitum. The experimental procedures were performed from 10:00 a.m. to 14:00 p.m.
# The experiment was conducted according to Miyasaka et al. and Kotańska et al., with some minor modifications. Mice were subjected to a 20 h food deprivation and a 2 h water deprivation prior to testing. The animals received a vehicle (0.25 mL/mouse) alone or along with various compounds: JP-14 (10 mg/kg b. w.), RT (5 mg/kg body weight), metformin (100 mg/kg b. w.), or loperamide (reference compound; 10 mg/kg b. w.) via gastric gavage. Following a 45 min interval, phenol red (0.5 mL, 0.05% w/v) combined with glucose (1 g/kg body weight) was administered through the same route. Additionally, each group received an intraperitoneal injection of heparin (2500 U/mouse) 20 min prior to the collection of stomach contents. Seven mice treated with the vehicle were sacrificed immediately after the phenol red administration to serve as a standard control (representing 100% phenol red in the stomach at 0 min), establishing a baseline for maximum absorbance (100%). The leftover mice were sacrificed 30 min later. The stomachs were removed and homogenized using an OMNI homogenizer (OMNI International Company, Kennesaw, GA, USA), with 10 mL of 0.1 N NaOH. To 5 mL of homogenate, 0.5 mL of 20% w/v solution of trichloroacetic acid was incorporated to precipitate the proteins. Subsequently, the samples were centrifuged at 600× g for 15 min at a temperature of 20 °C, and 0.25 mL of supernatant was mixed with 1 mL of 0.5 N NaOH to achieve maximum color intensity. The concentration of phenol red was measured using spectrophotometry, with absorbance evaluated at a wavelength of 560 nm (MuLTISKAN.GO, Thermo Fisher Scientific Inc., Waltham, MA USA). For each mouse, the percentage of gastric emptying (GE %) was calculated using the following equation:(1) GE%=(Ac0−Ab)/(Ac0−Ac30)×100% where: Ac0 is the absorbance of the control gastric sample collected immediately after dye administration, and Ac30 is the absorbance of the control gastric sample collected 30 min after dye administration, i.e., Ac0–Ac30 = 100% gastric emptying.
# [4] = tested on: 3T3-L1 cells; assay: Lipid accumulation (AdipoRed assay) in 3T3-L1 cells; type: cell-based, mouse; conditions: for lipid accumulation (intracellular lipid content), reduction: 10 µM, compared to vehicle-treated controls
# Procedure: (§1) The 3T3-L1 mouse embryonic fibroblast cell line (ATCC CRL-11605) was cultured according to the standard protocol in Dulbecco’s Modified Eagle Medium (DMEM) supplemented with 10% bovine calf serum, 100 µg/mL streptomycin, and 100 IU/mL penicillin, at 37 °C in a humidified atmosphere containing 5% CO2. Cells were seeded at a density of 10,000 cells/well in collagen type I–coated (10 µg/mL) 96-well plates and allowed to attach for 24 h. Differentiation was initiated by replacing the medium with induction medium composed of DMEM, 0.5 mM 3-isobutyl-1-methylxanthine (IBMX), 1 µM dexamethasone, and 10% fetal bovine serum (FBS). After 48 h (differentiation day 2), the medium was replaced with DMEM supplemented with 10% FBS and 10 µg/mL human recombinant insulin. After an additional 24 h, the medium was replaced with DMEM supplemented with 10% bovine calf serum, 100 µg/mL streptomycin, and 100 IU/mL penicillin. The medium was refreshed every 24 h for 10 consecutive days to allow full differentiation into adipocytes.
# On day 10 of differentiation, cells were treated with test compounds for 24 h. To investigate the involvement of the TAAR1 receptor, cells were pre-treated for 15 min with the selective TAAR1 antagonist RTI-7470-44 (40 nM) before compound exposure. After incubation, the culture medium was removed, and wells were gently rinsed with 200 µL PBS and refilled with 200 µL PBS. AdipoRed reagent (5 µL; Lonza) was added to each well, mixed, and incubated at room temperature for 10 min. Fluorescence was measured using the POLARstar Omega plate reader (excitation 485 nm, emission 535 nm).
# [5] = tested on: multiple species TAAR1 (mouse, rat, and human); design: method as in PMID 31848873; conditions: heterologous cell lines; cited from earlier work
# [6] = biological target: T1, human TAAR1 (Homo sapiens, UniProt Q96RJ0); assay: TAAR1 agonist activity, Hit Hunter cAMP assay; type: cell-based; conditions: cAMP accumulation; n.a. = no activity at 10–5 M; read-out: TAAR1 Ago EC50
# T1 sequence (Q96RJ0 1-339): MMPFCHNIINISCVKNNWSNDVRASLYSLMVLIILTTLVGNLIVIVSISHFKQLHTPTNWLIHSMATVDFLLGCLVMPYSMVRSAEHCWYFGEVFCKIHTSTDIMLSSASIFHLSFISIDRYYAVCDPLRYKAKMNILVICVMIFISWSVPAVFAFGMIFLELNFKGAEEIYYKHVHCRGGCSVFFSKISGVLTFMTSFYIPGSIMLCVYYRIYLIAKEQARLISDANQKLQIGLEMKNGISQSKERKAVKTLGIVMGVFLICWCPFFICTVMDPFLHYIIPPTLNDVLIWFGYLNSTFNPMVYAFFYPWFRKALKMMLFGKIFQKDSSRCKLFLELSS
# Procedure: The intrinsic activity of the TAAR1 receptor will be assessed according to the manufacturer’s protocol, using the Hit Hunter® cAMP assay by DiscoverX. This assay enables monitoring of GPCR activation in cells stably expressing TAAR1 by measuring changes in the level of the secondary messenger, cAMP. The cAMP Hunter cell lines were cultured from frozen stocks following standard procedures. Cells were plated in white-walled 384-well microplates at a total volume of 20 µL per well and incubated at 37 °C for the required period before analysis. To assess agonist activity, cells were exposed to the test compound to trigger a response. The culture medium was then removed and replaced with 15 µL of a 2:1 mixture of HBSS and 10 mM Hepes containing the cAMP XS+ antibody reagent. Sample stocks were diluted to prepare a 4× concentration in assay buffer. Subsequently, 5 µL of the 4× sample was added to each well, and the plates were incubated at either 37 °C or room temperature for 30 or 60 min. The vehicle was used at a concentration of 1%. After incubating the compounds for the required time, the assay signal was produced by adding 20 µL of the cAMP XS+ ED/CL lysis cocktail and incubating for one hour. This was followed by a three-hour incubation with 20 µL of the cAMP XS+EA reagent at room temperature. After signal development, the microplates were read using a PerkinElmer Envision Reader to detect chemiluminescence.
# [7] = tested on: 3T3-L1 adipocytes; assay: Steatosis, HCS LipidTOX imaging in 3T3-L1 adipocytes; type: cell-based, mouse
# Procedure: as §1
# (§2) Lipid accumulation and phospholipidosis were evaluated using the HCS LipidTOX Phospholipidosis and Steatosis Detection Kit (Thermo Fisher Scientific). Cells were cultured in black, clear-bottom 96-well plates and treated as described. Next, cells were fixed with 4% paraformaldehyde (15 min), washed with PBS, and stained with LipidTOX Green Neutral Lipid Stain (for steatosis) and LipidTOX Red Phospholipidosis Detection Reagent, prepared according to the manufacturer’s instructions. Nuclei were counterstained with Hoechst 33342 (2 µg/mL). Image acquisition and quantitative analysis were performed using High Content Screening (HCS) technology on the ImageXpress XLS system (Molecular Devices). Lipid droplet and phospholipid content were quantified using automated image analysis pipelines.
# [8] = tested on: 3T3-L1 adipocytes; assay: Phospholipidosis, HCS LipidTOX imaging in 3T3-L1 adipocytes; type: cell-based, mouse
# Procedure: as §1, §2
# [9] = tested on: HEPG2 cell line; assay: Cell viability assay (PrestoBlue, metabolic function), HepG2; type: cell-based, human; conditions: 24 h, mean
# Procedure: (§3) Prior to investigating the biological activity and molecular characteristics of the test compounds in vitro, a comprehensive cytotoxicity screening was performed using HepG2 and 3T3-L1 cell lines. Two complementary assays were applied: one based on the quantification of adenylate kinase release as an indicator of cell membrane damage, and another relying on resazurin reduction to assess cellular metabolic activity. These complementary assays enable sensitive and reliable detection of cytotoxic effects across diverse cell types. This preliminary assessment was carried out to ensure that subsequent functional analyses would not be confounded by nonspecific cytotoxic effects.
# (§4) Cell viability was measured using PrestoBlue reagent (Thermo Fisher Scientific, Waltham, MA, USA), following the manufacturer’s instructions. After 24 h of compound treatment, PrestoBlue reagent was added to each well at 10% of the remaining medium volume. The plate was incubated at 37 °C for 15 min, and fluorescence was measured using the POLARstar Omega plate reader (excitation 530 nm, emission 580 nm). Results were expressed as a percentage of viable cells relative to the DMSO-treated control.
# [10] = tested on: 3T3-L1 cell line; assay: Cell viability assay (PrestoBlue, metabolic function), 3T3-L1; type: cell-based, mouse; conditions: 24 h, mean
# Procedure: as §3, §4
# [11] = tested on: 3T3L1 cell line; type: cell-based; conditions: mouse, 24 h
# Procedure: as §3
# (§5) The damage of cell membrane was evaluated with the ToxiLight BioAssay Kit from Lonza (Visp, Switzerland). This test is very sensitive and measures cell damage by looking at the release of adenylate kinase (AK). After 24 h of treatment, 5 µL of culture supernatant was transferred to a 384-well white plate (PerkinElmer, Singapore), followed by the addition of 20 µL of Adenylate Kinase Detection Reagent (AKDR). After a 10 min incubation at room temperature, luminescence was measured using the POLARstar Omega plate reader (BMG Labtech, Ortenberg, Germany). Results were expressed as a percentage relative to a lysed control (100% cell death).
# [12] = tested on: HEPG2 cell line; type: cell-based; conditions: human, 24 h
# Procedure: as §3, §5
smiles,measurement,setting,value
N#Cc1cc(/C=N/NC(=N)N)ccc1F,Ki,[1],0.996 µM
COc1ccc(/C=N/NC(=N)N)cc1 [4 (JP06)],Ki,[1],1.07 ± 0.078 µM
"CN(C)C(=N)N=C(N)N [Metformin, metformin]",increase in glucose consumption (uptake),[2]; 100 µM,36%
same,inhibitory effect on gastric emptying,[3]; 100 mg/kg b.w.,about 30%
"CN(CCOc1ccc(CC2SC(=O)NC2=O)cc1)c1ccccn1 (stereo not drawn) [Rosiglitazone, rosiglitazone]","lipid accumulation, reduction","[4]; 100 µM, relative to vehicle-treated cells",90%
CN(C)C(=O)C(CCN1CCC(O)(c2ccc(Cl)cc2)CC1)(c1ccccc1)c1ccccc1 [loperamide],percentage inhibition of gastric emptying,"[3]; intragastric, 10 mg/kg b.w.",about 55%
"Clc1cccc(N2CCNCC2)c1 [mCPP, meta-chlorophenylpiperazine]",increase in glucose consumption (uptake),[2]; 10 µM,no significant changes
same,"lipid accumulation (intracellular lipid content), reduction",[4],significantly increased lipid accumulation
NCC(O)c1ccc(O)cc1 (stereo not drawn) [para-octopamine],EC50,[5],2 to 20 µM
NCCc1c[nH]c2ccccc12 [tryptamine],EC50,[5],0.4 to 21 µM
NCCc1ccc(O)cc1 [tyramine],glucose-stimulating effect under TAAR1 blockade,[2]; 10 µM + RTI-7470-44 (40 nM),substantially attenuated
same,increase in glucose consumption (uptake),[2]; 10 µM,32%
same,lipid-lowering effect under TAAR1 blockade,[4]; 10 µM + RTI-7470-44 (40 nM),completely abolished
same,"lipid accumulation (intracellular lipid content), reduction",[4],33%
same,EC50,[6],5.87 ± 0.47 µM
same,effect on steatosis under TAAR1 blockade,[7]; 10 µM + RTI-7470-44 (40 nM),abolished
same,steatosis (neutral lipid accumulation),"[7]; 10 µM, vs vehicle",statistically significant decrease
same,effect on phospholipidosis under TAAR1 blockade,[8]; 10 µM + RTI-7470-44 (40 nM),reversed
same,phospholipidosis (phospholipid accumulation),"[8]; 10 µM, vs vehicle",significantly reduced
same,"cellular metabolic function, percentage relative to control (live cells)","[9]; Table S4, 0.1 μM",101%
same,"cellular metabolic function, percentage relative to control (live cells)","[9]; Table S4, 1 μM",98%
same,"cellular metabolic function, percentage relative to control (live cells)","[9]; Table S4, 10 μM",97%
same,"cellular metabolic function, percentage relative to control (live cells)","[9]; Table S4, 50 μM",89%
same,"cellular metabolic function, percentage relative to control (live cells)","[9]; Table S4, 100 μM",80%
same,"cellular metabolic function, percentage relative to control (live cells)","[10]; Table S5, 0.1 μM",95%
same,"cellular metabolic function, percentage relative to control (live cells)","[10]; Table S5, 1 μM",90%
same,"cellular metabolic function, percentage relative to control (live cells)","[10]; Table S5, 10 μM",88%
same,"cellular metabolic function, percentage relative to control (live cells)","[10]; Table S5, 50 μM",67%
same,"cellular metabolic function, percentage relative to control (live cells)","[10]; Table S5, 100 μM",55%
same,"membrane integrity, percentage relative to control (death cells)",[11]; 0.1 μM,6%
same,"membrane integrity, percentage relative to control (death cells)",[11]; 1 μM,6%
same,"membrane integrity, percentage relative to control (death cells)",[11]; 10 μM,6%
same,"membrane integrity, percentage relative to control (death cells)",[11]; 50 μM,6%
same,"membrane integrity, percentage relative to control (death cells)",[11]; 100 μM,8%
same,"membrane integrity, percentage relative to control (death cells)",[12]; 0.1 μM,8%
same,"membrane integrity, percentage relative to control (death cells)",[12]; 1 μM,7%
same,"membrane integrity, percentage relative to control (death cells)",[12]; 10 μM,7%
same,"membrane integrity, percentage relative to control (death cells)",[12]; 50 μM,8%
same,"membrane integrity, percentage relative to control (death cells)",[12]; 100 μM,11%
